Experimental data reported in the NIST ThermoML archive (doi:10.1007/s10765-007-0182-2).
± gives the expanded uncertainty stated by the source.

Conditions: 101.33 kPa, Liquid, hot wire

**Q.** With `[Pb]` [lead] as the molecule, how does the thermal conductivity (620.3 K) read?
**A.** 16.2 ± 1 W/m/K

**Q.** And the thermal conductivity (678.1 K)?
**A.** 17 ± 1.1 W/m/K

**Q.** What about the thermal conductivity (729.5 K) of the same molecule?
**A.** 17.6 ± 1.1 W/m/K
